Source: paper PMC5909423, “Antibiotic resistance ABCF proteins reset the peptidyl transferase centre of the ribosome to counter translational arrest” (Nucleic Acids Research, 2018)

Target: T1, LsaA (Enterococcus faecalis, UniProt Q7WT47)
T1 construct: gene lsa
Settings: 1 uM LsaA, 1 mM ATP, 1 uM lincomycin; indirect read-out

T1 sequence (Q7WT47 entry or part of it): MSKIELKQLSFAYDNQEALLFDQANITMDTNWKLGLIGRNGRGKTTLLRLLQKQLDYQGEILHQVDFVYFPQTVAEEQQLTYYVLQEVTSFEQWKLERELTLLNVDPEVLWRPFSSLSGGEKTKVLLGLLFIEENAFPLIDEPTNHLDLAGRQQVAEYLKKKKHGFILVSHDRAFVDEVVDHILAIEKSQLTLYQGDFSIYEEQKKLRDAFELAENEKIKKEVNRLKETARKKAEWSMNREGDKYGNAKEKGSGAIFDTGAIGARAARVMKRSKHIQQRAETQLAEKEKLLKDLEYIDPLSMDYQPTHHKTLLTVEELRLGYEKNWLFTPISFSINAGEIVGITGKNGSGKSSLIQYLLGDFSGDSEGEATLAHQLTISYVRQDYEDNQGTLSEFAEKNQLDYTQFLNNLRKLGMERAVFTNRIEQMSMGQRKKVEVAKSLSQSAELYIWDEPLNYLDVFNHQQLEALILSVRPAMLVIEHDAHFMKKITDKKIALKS

Q: For `Nc1ncnc2c1ncn2[C@@H]1O[C@H](COP(=O)(O)OP(=O)(O)OP(=O)(O)O)[C@@H](O)[C@H]1O` [ATP], which “ATP-dependent rescue of puromycin reaction of lincomycin-inhibited E. faecalis 7” value is on record?
A: in the absence of ATP LsaA has no effect
